How the values were obtained:
[1] = tested on: rat model of thoracic traumatic Spinal Cord Injury (SCI); test: Bladder function, bladder score and urinary complications in SCI rats; format: in vivo
Procedure: (§1) Lyophilized Compound 8 was dissolved in saline and injected s.c. at a volume of 500 μl to animal once daily from day 1-day 49 post spinal cord injury.
The dose concentration was 0.8 mg/ml, corresponding to 400 μg/rat. After reconstitutions, the solution was aliquoted and kept at −20° C. until dosing.
Spinal cord injury (SCI) was introduced to the rats by surgery using the Infinite Horizon (IH) Impactor (200 kDyn force) described by Scheff et al. 2003. The surgery was performed with aseptic procedures in a designated area under deep anesthesia. Rats were anesthetized with isoflurane (4% for induction, 2% for maintenance), and O2 (300 cm^3/min) mixture. Hair was removed from the surgical site with clippers and the skin wase scrubbed with an antiseptic detergent. To maintain body temperature the animals were placed upon a homoeothermic blanket system. The T8 Vertebra of the rat was located externally, and an incision was made exposing the vertebral column from T6-T11. A laminectomy was performed using a surgical microscope to expose the dorsal spinal cord at the thoracic (T8) vertebral level. The vertebral column was stabilized by clamping the nearest rostral and caudal vertebral processes and the injury was produced using the IH impactor device at a 200 kDyn force. After each lesion the IH graphs and impact data were reviewed and recorded, rats presenting an impact force more than 10% higher or lower than expected and/or any abnormality on the force/displacement impact graphs were excluded from the study. Additionally, animals scoring more than 1 points in the Basso, Beattie and Bresnahan (BBB) score scale at 1 days after SCI were excluded for the study as well.
Starting the day after lesion animals were observed twice a day and bladders were manually expressed using gentle abdominal pressure. Any abnormal appearance of the urine (i.e. cloudy urine, bloody urine) was recorded, and the size of the bladder estimated by trained researchers in order to obtain a categorical score (bladder score) (empty bladders=0; extra-small bladders=1; small bladders=2, medium bladders=3, large bladders=4). Urinary complications (bloody urine, foul-smelling urine, urine-stained fur) were reported and treated with SC fluids twice a day, and antibiotic treatment if the issues persisted. Bladder expression continue until spontaneous voiding was observed (empty bladder for 3 consecutive days).
During bladder expressions the size of each bladder was estimated by trained researchers and a semi-quantitative score was obtained. Daily estimates of urine retention were obtained by adding the bladder size scores of AM and PM bladder expressions. FIG. 5 illustrates the weekly average of urine retention in the rats in the testing group that were treated with Compound 8 in saline, compared to the rats in control group that were treated with vehicle control (saline).
Urinary complications including bloody urine, foul-smelling urine, and urine-stained fur were monitored. When a new complication was observed after resolutions of a previous event, it was considered repetitive. Animals would be euthanized if the complications persisted after an additional cycle of antibiotics, when bladders could not be expressed or when general health deterioration was observed.
Urinary complications, such as repetitive bloody urine, urine-stained fur and urinary infections were observed, recorded, and treated, as needed.
In this study, the effects of Compound 8 in improving the recovery of open field locomotor performance and bladder function in the SCI rats were further evaluated in comparison with Compound 4 by assessing the BBB scores and bladder scores according to the methods described in Example 3.
In this assessment, 12-13 rats were included in each of the following groups (1) Control group 1: SCI+saline alone; (2) Control group 2: SCI+Compound 4 in saline; (3) Testing group: SCI+Compound 8. […]

[2] = tested on: animal model of spinal cord injury (SCI rats); test: Recovery of occasional and frequent walking, inverse Kaplan-Meier on BBB thresholds; format: in vivo, rat
Procedure: Adult, female Lewis rats (~160 g on arrival) from Envigo were used as the subjects receiving the treatment in the study. The rats were assigned unique identification numbers (PGI ID and tail marks) and housed in ventilated cages. All rats were examined, handled, and weighed prior to initiation of the study to assure adequate health and suitability. During the course of the study, 12/12 light/dark cycles were maintained. The room temperature was maintained between […] and 23° C. with a relative humidity maintained around 50%. Chow and water were provided adlibitum for the duration of the study. The rats were randomly assigned across treatment groups. Body weights were taken twice a week during the study.
Spinal cord injury (SCI) was introduced to the animals and post-operative care was followed after the injury according to the methods described in Example 3.
as §1
The target dose concentration was 0.8 mg/ml. After reconstitutions, the solution was aliquoted and kept at −20° C. until dosing.
12-13 rats were used in each of the following two groups: • 1) Control group: SCI+Saline • 2) Testing group: SCI+Compound 8 in Saline.
Inverse Kaplan-Meier graphs were generated based on the Basso, Beattie & Bresnaham (BBB) open field locomotor assessment described above in Example 3. […]
Recover occasional walking: Occasional walking is defined as less than or equal to half of the attempted steps are successful, corresponding to a BBB score of 10. The week post-SCI in which an animal achieved a 10 or above was recorded and plotted on the Kaplan Meier graph, as defined above.
Recover frequent walking: Frequent walking is defined as greater than half of the attempted steps are successful and corresponds to a BBB score of 11. The week post-SCI in which an animal achieved an 11 or above was recorded and plotted on the Kaplan Meier graph, as defined above.
Statistical methods: Kaplan Meier curves were analyzed using the log-rank test. Effects of Compound 4 and Compound 8 on the locomotor function and bladder function were assessed for statistical significance by repeated measures ANOVA (RM-ANOVA) with Geisser-Greenhouse correction for non-sphericity of data and Tukey correction for multiple comparisons or by nonparametric Friedman's test with Dunn's multiple comparison correction. The choice of RM ANOVA or Friedman's test for the analysis of each type of data (BBB scores, BBB subscores, and bladder scores) was determined by the normality of data distribution tests performed for each of the functional scores across all treatment cohorts. […]

Substance: TAT-Cys-rodent PTPRS wedge domain homodimer [Compound 8]
- average weekly bladder scores compared with Compound 4 or saline alone ([1]; RM ANOVA, Tukey, p=0.0001 vs saline, p=0.0085 vs Compound 4): significantly lower
- Euthanasia due to Urinary Complications ([1]; during the course of the study): none
- Repetitive Urinary Complications (animals) ([1]; during the course of the study): 1 out of 13
- Repetitive Urinary Complications (percentage) ([1]; during the course of the study): 8%
- Urinary Complications (animals) ([1]; during the course of the study): 4 out of 13
- Urinary Complications (percentage) ([1]; during the course of the study): 31%
- percentage of rats with bladder scores of 2 or better ([1]; during weeks 10 to 13): more than 40%
- estimated size of bladders ([1]; evident from week 8 to 13): decrease in the estimated size of bladders
- percentage of rats with bladder scores of 2 or better ([1]; starting on week 6 post-SCI): About 25%
- frequency of urinary complications compared with vehicle control ([1]; vs rats receiving vehicle control): less frequent
- urine retention (weekly average of estimated bladder size scores) ([1]; vs vehicle control, trend noticeable starting at week 4 after SCI): less urine retention
- time at which recovery of frequent walking was first detected ([2]; post injury): after three weeks post injury
- time at which recovery of occasional walking reached 50% ([2]; post-SCI): less than 6 week
- recovery of frequent walking (BBB score of 11 or above), accumulated percent of group ([2]; week 12 post-SCI): ~50%
- recovery of occasional walking (BBB score of 10 or above), accumulated percent of group ([2]; week 12 post-SCI, 0.8 mg/ml, 500 μl s.c. once daily day 1-49): ~80%

Reference: patent US20260286322A1, “PROTEIN TYROSINE P[…] DOMAIN PEPTIDE DIMER FOR NERVOUS SYSTEM REPAIR” (NervGen Pharma Corp., priority 2023, published 2026)
